The nature of experiment [1]: Inhibition of RSK2 in mouse BAF cells assessed as YB1 phosphorylation at Ser102 by electrochemiluminescence assay.
Experiment [2] is described as follows: Inhibition of recombinant full length RSK2 (unknown origin) using biotin-AGAGRSRHSSYPAGT-OH as substrate after 150 mins.

One may read the IC50 as the concentration at which inhibition is half-maximal. `COc1cc(Nc2nc3cccc(-c4cccc5[nH]cnc45)c3o2)cc(OC)c1OC`: the IC50 worked out at 0.8 µM in experiment [1] and 4 nM in experiment [2].
Regarding `COc1ccc(Nc2nc3cccc(-c4c(F)cccc4OC)c3o2)cc1O[C@H]1CCNC1`, the results for the IC50 in experiment [1] and in experiment [2] were 6.3 µM and 10 nM, respectively.
In the same order, the values of `COc1ccccc1-c1cccc2nc(Nc3cc(OC)c(OC)c(OC)c3)oc12` are 5.7 µM and 20 nM.
The corresponding values for `COc1ccc(F)cc1-c1cccc2nc(Nc3cc(OC)c(OC)c(OC)c3)oc12` are 3.7 µM and 40 nM.
The corresponding values for `COc1cc(C)ccc1-c1cccc2nc(Nc3cc(OC)c(OC)c(OC)c3)oc12` are 9.7 µM and 40 nM.
In the case of `COc1cc(Nc2nc3cccc(-c4cccc5cn[nH]c45)c3o2)cc(OC)c1OC`, the IC50 stood at 5.7 µM in experiment [1] and 50 nM in experiment [2].
The corresponding values for `COc1ccc(Nc2nc3cccc(-c4c(F)cccc4OC)c3o2)cc1OC` are 6.5 µM and 70 nM.
The corresponding values for `COc1cc(Nc2nc3cccc(-c4c(F)cccc4OC)c3o2)cc(OC)c1` are 17.2 µM and 210 nM.
The corresponding values for `COc1ccc(Nc2nc3cccc(-c4c(F)cccc4OC)c3o2)cc1N` are > 20 µM and 220 nM.
As for `COc1cc(Nc2nc3cccc(-c4ccccc4F)c3o2)cc(OC)c1OC`, the results for the IC50 in experiment [1] and in experiment [2] were 18 µM and 220 nM, respectively.
In the same order, the values of `COc1cccc(F)c1-c1cccc2nc(Nc3cccc(S(N)(=O)=O)c3)oc12` are > 20 µM and 340 nM.
Take `COc1cccc(Nc2nc3cccc(-c4c(F)cccc4OC)c3o2)c1`: the figures for the IC50 in experiment [1] and in experiment [2] were 15.4 µM and 410 nM, respectively.
The corresponding values for `CCOc1cccc(F)c1-c1cccc2nc(Nc3cc(OC)c(OC)c(OC)c3)oc12` are 10.8 µM and 490 nM.
In the same order, the values of `COc1cc(Nc2nc3cccc(-c4nc(C)[nH]c4C)c3o2)cc(OC)c1OC` are 19.8 µM and 560 nM.
The corresponding values for `COc1cccc(F)c1-c1cccc2nc(NC3CCCCC3)oc12` are > 20 µM and 620 nM.
For `COc1cccc(Nc2nc3cccc(-c4c(F)cccc4OC)c3o2)n1`, the IC50 is > 20 µM in experiment [1] and 620 nM in experiment [2].
For `CCOc1cccc(Nc2nc3cccc(-c4c(F)cccc4OC)c3o2)c1`, the IC50 in experiment [1] was > 20 µM; in experiment [2], 730 nM.
The corresponding values for `COc1cc(Nc2nc3cccc(-c4c(F)cccc4OC(C)C)c3o2)cc(OC)c1OC` are > 20 µM and 970 nM.
The corresponding values for `COc1cccc(F)c1-c1cccc2nc(Nc3ccccc3)oc12` are > 20 µM and 1000 nM.
In the same order, the values of `COc1ccc(C)cc1-c1cccc2nc(Nc3cc(OC)c(OC)c(OC)c3)oc12` are 14.5 µM and 1100 nM.
For the molecule `COc1cc(Nc2nc3cccc(-c4c(OC)cccc4OC)c3o2)cc(OC)c1OC`, the IC50 in experiment [1] was > 20 µM; in experiment [2], 1200 nM.
In the same order, the values of `COc1ccc(Nc2nc3cccc(-c4c(F)cccc4OC)c3o2)cc1` are > 20 µM and 1400 nM.
The corresponding values for `COc1cccc(F)c1-c1cccc2nc(N)oc12` are > 20 µM and 2800 nM.
In the same order, the values of `COc1cccc(F)c1-c1cccc2nc(NC3CCOCC3)oc12` are > 20 µM and 3200 nM.
Take `COc1cc(Nc2nc3cccc(-c4ccccc4OC(F)(F)F)c3o2)cc(OC)c1OC`: the IC50 in experiment [1] was > 20 µM; in experiment [2], 4000 nM.
In the same order, the values of `COc1cc(Nc2nc3cccc(-c4ccccc4-c4cn[nH]c4)c3o2)cc(OC)c1OC` are > 20 µM and 9300 nM.
